≈ marks a conversion by molar mass, not a printed value. Like-named read-outs stand apart in the source and are kept apart here.
Columns and labels:
platelet aggregation [1] = assay: Effects on platelet aggregation in vitro (ADP-induced, rat platelet-rich plasma, Born type aggregometer); assay type: cell-based, rats; conditions: 2 min, read-out: 50% inhibitory concentrations (IC50)
Experimental: 1. Effects on platelet aggregation in vitro
Samples of blood are collected from rats weighing 400-450 g and mixed with a 1/10 volume of 3.8% sodium citrate solution. The citrated blood is centrifugated at 200×g for 10 minutes to yield platelet-rich plasma. Test compound is added to platelet-rich plasma thus obtained and maintained at 37° C. for 2 minutes. The platelet aggregation is induced by the addition of 10^-5 M adenosine diphosphate (final concentration) and measured with a Born type six channel aggregometer (Journal of Physiology, vol. 168, pp. 175-198, 1963.
50% inhibitory concentrations (IC50, μg/ml) as compared the control group are calculated. Aspirin and ticlopidine are employed as compounds for comparison.

platelet aggregation [2] = assay: Effects on platelet aggregation ex vivo (ADP-induced, rat platelet-rich plasma 2 hours after oral administration); assay type: in vivo; conditions: p.o., rats, after 2 hours, 10^-5 M adenosine diphosphate
Experimental: 2. Effects on platelet aggregation ex vivo
Test compound is orally administered to rats weighing 400-450 g. After 2 hours, samples of blood are collected from the rats and mixed with a 1/10 volume of 3.8% sodium citrate solution. The citrated blood is centrifugated at 200×g for 10 minutes to yield platelet-rich plasma. The platelet aggregation is induced by the addition of 10^-5 M adenosine diphosphate (final concentration) and measured with the same aggregometer as described in the above Method.
Percentage of inhibition as compared with the control group administered with the solvent are calculated.

[3] = rat platelet-rich plasma, 37° C., 2 minutes, 10^-5 M adenosine diphosphate

| Structure (SMILES) | IC50 (platelet aggregation [1]; [3]) [mg/L] | IC50 (platelet aggregation [1]; Rattus norvegicus, Platelet) [mg/L] | inhibition at 10 mg/kg (platelet aggregation [2]) [%] |
| --- | --- | --- | --- |
| CC(=O)Oc1ccccc1C(=O)O [Aspirin, reference compound] |  | > 300 |  |
| O=C1COC(c2csc3nccn23)=NN1 [Example 16, 2-(Imidazo[2,1-b]thiazol-3-yl)-4,6-dihydro-1,3,4-oxadiazin-5-one] |  |  | 60 |
| Cc1c(C2=NNC(=O)CO2)sc2nccn12 [Example 17, 2-(3-Methylimidazo[2,1-b]thiazol-2-yl)-4,6-dihydro-1,3,4-oxadiazin-5-one] | 0.6 (≈ 2.54 µM) |  | 54 |
| O=C1COC(c2ccc3nccn3c2)=NN1 [Example 18, 2-(Imidazo[1,2-a]pyridin-6-yl)-4,6-dihydro-1,3,4-oxadiazin-5-one] | 0.4 (≈ 1.85 µM) |  | 65 |
| Cl.O=C1COC(c2cccn3ccnc23)=NN1 [Example 19, 2-(Imidazo[1,2-a]pyridin-8-yl)-4,6-dihydro-1,3,4-oxadiazin-5-one hydrochloride] |  | 1 |  |
| Clc1ccccc1CN1CCc2sccc2C1 [Ticlopidine, ticlopidine, reference compound] | > 300 |  |  |

More lines, main results first:

| IC50 (platelet aggregation [1]; [3]) [mg/L] | Structure (SMILES) | IC50 (platelet aggregation [1]; Rattus norvegicus, Platelet) [mg/L] | inhibition at 10 mg/kg (platelet aggregation [2]) [%] |
| --- | --- | --- | --- |
| 1 (≈ 4.34 µM) | Cc1nc2ccccn2c1C1=NNC(=O)CO1 [Example 1, 2-(2-methylimidazo[1,2-a]pyridin-3-yl)-4,6-dihydro-1,3,4-oxadiazin-5-one] |  | 75 |
| 1.9 (≈ 7.78 µM) | Cc1nc2c(C)cccn2c1C1=NNC(=O)CO1 [Example 2, 2-(2,8-dimethylimidazo[1,2-a]pyridin-3-yl)-4,6-dihydro-1,3,4-oxadiazin-5-one] |  |  |
| 3 (≈ 12.3 µM) | Cc1ccc2nc(C)c(C3=NNC(=O)CO3)n2c1 [Example 3, 2-(2,6-dimethylimidazo[1,2-a]pyridin-3-yl)-4,6-dihydro-1,3,4-oxadiazin-5-one] |  |  |
| 0.5 (≈ 2.12 µM) | Cc1nc2sccn2c1C1=NNC(=O)CO1 [Example 5, 2-(6-methylimidazo[2,1-b]thiazol-5-yl)-4,6-dihydro-1,3,4-oxadiazin-5-one] |  | 54 |

From patent US4713381A, “Oxodiazine compounds and pharmaceutical compositions thereof” (Yoshitomi Pharmaceutical Industries, Ltd., priority 1985, dated 1987)
